According to paper PMC5292237 (Bioorganic & medicinal chemistry, 2016):

Key:
[1] = system: LSD1; conditions: cited from earlier work
[2] = target: human recombinant LSD1 (Homo sapiens, UniProt O60341); test: Labeling of human recombinant LSD1 after pre-treatment with LSD1 inhibitors; assay type: biochemical

| Structure (SMILES) | reported potency over LSD1 [1] [µM] | effect of inhibitor pre-treatment on LSD1 labeling by probe 17 ([2]; compound 12 1 mM or TCP 1.5 mM, 30 min pre-incubation, probe 17 40 µM, 2 min UV) | effect of inhibitor pre-treatment on LSD1 labeling by probe 18 ([2]; compound 12 pre-incubation 30 min, probe 18 10 µM, 2 min) |
| --- | --- | --- | --- |
| N[C@@H]1C[C@H]1c1ccccc1 (relative stereo) [TCP, trans-2-phenylcyclopropyl-1-amine] | 20 to 400 | – | – |
| C=Cc1ccc(C(=O)Nc2ccc([C@@H]3C[C@H]3N)cc2)cc1.Cl (relative stereo) [compound 12, N-(4-(trans-2-aminocyclopropyl)phenyl)-4-vinyl benzamide hydrochloride] | – | no reduction in protein labeling | no clear difference |
